Source: patent publication US4435405A, “Quinoline derivatives which are 5-hydroxytryptamine antagonists” (Imperial Chemical Industries PLC, priority 1981, dated 1984)

Tests used:
LD50 in the mouse = details: in vivo
LD50 in the rat = details: in vivo, female
[1] = ip, intraperitoneally in the mouse

Compound	LD50 (LD50 in the mouse; [1])	LD50 (LD50 in the rat; oral)	LD50 (LD50 in the rat; ip, intraperitoneal)	LD50 (LD50 in the mouse; ip, mouse, male, intraperitoneal)	LD50 (LD50 in the mouse; mouse, male, oral)
COc1ccccc1-c1cc2ccccc2nc1SCCN(C)C.Cl [2-(2-dimethylaminoethylthio)-3-(o-methoxyphenyl)-quinoline hydrochloride]	~150 mg/kg	–	–	–	–
CC(C)c1cc2ccccc2nc1SCCN(C)C.Cl [2-(2-dimethylaminoethylthio)-3-isopropylquinoline hydrochloride]	~100 mg/kg	–	–	–	–
CN(C)CCSc1nc2ccccc2cc1-c1ccccc1.Cl [2-(2-dimethylaminoethylthio)-3-phenylquinoline hydrochloride]	–	> 1000 mg/kg	128 mg/kg	75 mg/kg	485 mg/kg
